Measured values as given in PubChem BioAssay (NCI).
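96-well plates; 48 h exposure; 5 concentrations. Endpoints by linear interpolation between flanking doses. Not reached: highest tested concentration assigned. TGI is the concentration that stops growth completely.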 *1 amine or outer side, *2 acyl side, *3 side chain or, on linkers, in order; H or OH if unused. Where a SMILES comes first, the peptide text is derived from it. Bridges are numbered along the chain shown (N, C = ends). Roman numbers before positions name the chains, in order. [ ]: non-standard residue; d: D form. Actinocin(9to1) = Cc1c2oc3c(C)ccc(C(=O)[*:1])c3nc-2c(C(=O)[*:2])c(N)c1=O; NMeV = CN[CH](C(=O)O)C(C)C; Sar = CNCC(=O)O

Columns and labels:
Assay in all cases: NCI-60 cell line screen, 48 h
MOLT-4 leukemia = test system: MOLT-4 leukemia
NCI-H23 lung = test system: NCI-H23 lung
K-562 leukemia = test system: K-562 leukemia
NCI/ADR-RES ovarian = test system: NCI/ADR-RES ovarian
LOX IMVI melanoma = test system: LOX IMVI melanoma
MCF7 breast = test system: MCF7 breast
SK-MEL-5 melanoma = test system: SK-MEL-5 melanoma
NCI-H460 lung = test system: NCI-H460 lung
SK-OV-3 ovarian = test system: SK-OV-3 ovarian

SMILES	TGI (MOLT-4 leukemia)	TGI (NCI-H23 lung)	TGI (K-562 leukemia)	TGI (NCI/ADR-RES ovarian)	TGI (LOX IMVI melanoma)	TGI (MCF7 breast)	TGI (SK-MEL-5 melanoma)	TGI (NCI-H460 lung)	TGI (SK-OV-3 ovarian)
COC(=O)c1cccc(C)c1C1CN=NC12Cc1cc(C)cc(C)c1C2=O (stereo not given)	74.9 µM	> 100 µM	> 100 µM	> 100 µM	> 100 µM	> 100 µM	77 µM	> 100 µM	–
CCOC(=O)/C(C#N)=C/c1coc2cc(C)cc(C)c2c1=O	> 100 µM	> 100 µM	> 100 µM	> 100 µM	> 100 µM	–	> 100 µM	> 100 µM	> 100 µM
CON(C)C(=O)C(C)N(Cc1ccccc1)Cc1ccccc1 (stereo not given)	> 100 µM	> 100 µM	> 100 µM	> 100 µM	–	> 100 µM	> 100 µM	> 100 µM	> 100 µM
COc1cc(OCCN(C)C)c2[nH]c(C(=O)N3CC(CCl)c4ccc(N)cc43)cc2c1 (stereo not given)	0.0522 µM	0.316 µM	> 100 µM	1 µM	–	0.133 µM	0.197 µM	–	32 µM
Nc1nc(Cl)cc(OCC2(CO)CC=CC2)n1	> 100 µM	> 100 µM	> 100 µM	> 100 µM	> 100 µM	> 100 µM	> 100 µM	> 100 µM	–
Cc1c2oc3c(C)ccc(C(=O)NC4C(=O)NC(C(C)C)C(=O)N5CCCC5C(=O)N(C)CC(=O)N(C)C(C(C)C)C(=O)OC4C)c3nc-2c(C(=O)NC2C(=O)NC(C(C)C)C(=O)N3CCCC3C(=O)N(C)CC(=O)N(C)C(C(C)C)C(=O)OC2C)c(N)c1=O (stereo not given) (I: TVP[Sar][NMeV] / II: TVP[Sar][NMeV]; ester I:1-I:C, II:1-II:C; linker I:N-II:N via Actinocin(9to1); configuration not given here)	0.00137 µM	0.00481 µM	–	> 1 µM	–	0.00342 µM	0.0153 µM	0.00126 µM	> 1 µM
N#Cc1nc(-c2cnccn2)oc1N	> 100 µM	–	> 100 µM	–	> 100 µM	> 100 µM	> 100 µM	–	> 100 µM
Cc1nn(C(=O)Cc2ccccc2)c2c1C(c1ccccc1)SC(N)=N2 (stereo not given)	> 100 µM	> 100 µM	> 100 µM	–	> 100 µM	> 100 µM	> 100 µM	> 100 µM	> 100 µM
Cc1ccc2nc(-c3ccccc3)cc(=O)n2c1	> 100 µM	> 100 µM	> 100 µM	> 100 µM	–	> 100 µM	> 100 µM	> 100 µM	> 100 µM
CC1(C)[C@@H](Cn2cc(I)c(=O)[nH]c2=O)CC[C@@]1(C)CO	–	–	> 100 µM	> 100 µM	> 100 µM	–	> 100 µM	–	> 100 µM
COC(=O)[C@]1(C)CCC[C@@]2(C)C1CC[C@@]13C=C(C(C)C)[C@@H](CC1=O)CC23 (stereo not given in full)	31 µM	> 100 µM	30.2 µM	67.5 µM	–	64 µM	33 µM	> 100 µM	> 100 µM
CCOC(=O)c1nnn(CCCCO)c1C(=O)OCC	> 100 µM	> 100 µM	–	> 100 µM	> 100 µM	> 100 µM	> 100 µM	> 100 µM	–
CCOC(=O)C(=[N+]=[N-])C(=O)CN1C(=O)c2ccccc2C1=O	> 100 µM	> 100 µM	> 100 µM	–	–	> 100 µM	> 100 µM	> 100 µM	> 100 µM
Cc1ccc(-[n+]2cc([O-])on2)cc1	> 100 µM	> 100 µM	> 100 µM	> 100 µM	> 100 µM	–	> 100 µM	> 100 µM	–
Cc1ccc(S(=O)(=O)N2CC2CCCCC=O)cc1 (stereo not given)	> 100 µM	> 100 µM	> 100 µM	> 100 µM	56 µM	–	> 100 µM	–	> 100 µM
C/C(=N\NC(N)=S)c1ccc2c(c1)Sc1ccccc1O2	> 100 µM	79.1 µM	> 100 µM	10.6 µM	13.1 µM	–	6.83 µM	11.8 µM	39.5 µM
CCOC(=O)c1cc(-c2ccc(OC)cc2)c([N+](=O)[O-])n1C	> 10 µM	> 10 µM	> 10 µM	> 10 µM	–	–	–	> 10 µM	–
CC(C)=C[C@H]1C[C@H](C)[C@H]2CC[C@H](C)c3c2c1c(C)c1ncoc31	32.3 µM	–	> 100 µM	32.4 µM	37.7 µM	30.5 µM	28.6 µM	35.6 µM	–
CCOC(=O)c1ccc(-c2cc(C)no2)[nH]1	> 100 µM	> 100 µM	> 100 µM	> 100 µM	> 100 µM	–	> 100 µM	> 100 µM	> 100 µM
CCN(CC)CCCNC(=O)c1cc(-c2nccn2C)nc2ccccc12	> 100 µM	> 100 µM	> 100 µM	> 100 µM	> 100 µM	> 100 µM	> 100 µM	> 100 µM	–
